The record followed here is ChEMBL document CHEMBL3507680, “University of Dundee, Gates Library screen for HepG2 cell viability”.

The nature of the data set: Human HepG2 cell viability assay in 384 well format. It is filed as toxicity, cell-based. Details: dose 125 nL, time 70.5 hour; cytotoxicity at 70.5 h: concentration not given beside the values. The settings on record: HepG2 cells, read-out: Inhibition.
Turning to `CNC(=O)NC(=O)CCN1CCN(c2nccs2)CC1`, the cytotoxicity at 70.5 h was -0.375%.

In the case of `COc1cc(C)c(C(C)NC(=O)NCCCn2cncn2)cc1OC` (centres undefined), the cytotoxicity at 70.5 h was -5.14%.

As to `Cc1nc(CN2CCOC(Cn3cccn3)C2)no1` (centres undefined), the cytotoxicity at 70.5 h is -3.79%.

For the compound `CC(C)c1nnc2n1CCN(C(=O)c1ccnc(-n3ccnc3)c1)C2`, the cytotoxicity at 70.5 h was determined as 19.7%.

With `CC(C)c1nnc2n1CCN(C(=O)c1ccc3c(c1)CCC3)C2`, the cytotoxicity at 70.5 h was determined as 0.826%.

Take `CS(=O)(=O)c1cccc(C(N)c2ccc(F)cc2)c1` (centres undefined): the cytotoxicity at 70.5 h is -3.93%.

In the case of `CS(=O)(=O)c1cccc(C(N)c2ccc(Cl)cc2)c1` (centres undefined), the cytotoxicity at 70.5 h is -4.71%.

Consider `COc1ncccc1C(=O)N1CCC(Nc2ccc(C)nn2)CC1`, for which the cytotoxicity at 70.5 h was -4.22%.

Turning to `Cc1nc(CN(C)C2CCN(CCc3cnn(C)c3)C2)no1` (centres undefined), the cytotoxicity at 70.5 h came out at 18.2%.

As for `Cc1cnc(CN2CCCC(c3cc(C)[nH]n3)C2)cn1` (centres undefined), the cytotoxicity at 70.5 h came to 15.7%.

Consider `CC(=O)N(Cc1ncc(C)o1)C1CCN(CCc2cnn(C)c2)C1` (centres undefined), for which the cytotoxicity at 70.5 h is -11.2%.

Take `CC(C)c1cnc(CN(C)C2CCN(CCc3cnn(C)c3)C2)o1` (centres undefined): the cytotoxicity at 70.5 h was -5.18%.

Turning to `Cc1nc(CN2CCCN(Cc3nccn3C(C)C)CC2)no1`, the cytotoxicity at 70.5 h is -15.2%.

As to `Cc1nc(C)n(CC2CCCN2Cc2cn3ccccc3n2)n1` (centres undefined), the cytotoxicity at 70.5 h is -14.7%.

Turning to `Cc1cccc2nc(CN3CCCC3Cn3cncn3)cn12` (centres undefined), the cytotoxicity at 70.5 h was -17%.

As for `O=C(Cc1ccccc1)NCCNC(=O)c1scnc1Cl`, the cytotoxicity at 70.5 h is -9.54%.

Turning to `O=C(COc1ccccc1)NCCNC(=O)c1scnc1Cl`, the cytotoxicity at 70.5 h was -11.8%.

For the compound `Cc1csc(N2CCCN(C(=O)c3ccoc3C)CC2)n1`, the cytotoxicity at 70.5 h is -4.74%.

Turning to `Cc1cccc2nc(CN3CCCC3Cn3cccn3)cn12` (centres undefined), the cytotoxicity at 70.5 h is -10.8%.

On to `CCc1ncc(C(=O)N2CCC(Nc3ccc(C)nn3)CC2)s1`, for which the cytotoxicity at 70.5 h is -8.02%.

As to `CCc1ncc2c(n1)CN(CC(=O)Nc1cccnc1)CC2`, the cytotoxicity at 70.5 h stood at 10.9%.

With `COc1cc(S(=O)(=O)N2CCc3ccc(Cl)cc32)cc(C(=O)O)c1OC`, the cytotoxicity at 70.5 h was -8.43%.

In the case of `CCc1ncc2c(n1)CN(C(C)C(=O)Nc1ccc(Cl)cn1)CC2` (centres undefined), the cytotoxicity at 70.5 h amounted to 20.7%.

For the compound `CC(C)c1ncc2c(n1)CN(CC(=O)Nc1ccc(Cl)cn1)CC2`, the cytotoxicity at 70.5 h is -10.8%.

Consider `Cc1ccc(-c2nnc(CN3CCn4c(nnc4C4CC4)C3)o2)cc1`, for which the cytotoxicity at 70.5 h was -8.76%.

As for `OC(COCc1ccco1)CN1CCc2c(ncn2C2CC2)C1` (centres undefined), the cytotoxicity at 70.5 h came out at 1.85%.

As for `Cc1cc(CNC(=O)CN2CCCC(Cn3cncn3)C2)ccc1F` (centres undefined), the cytotoxicity at 70.5 h was 3.75%.

Take `CCc1noc(C(C)N2CCC(N3CCCCC3)CC2)n1` (centres undefined): the cytotoxicity at 70.5 h was -6.88%.

Take `CC(C)(C)c1n[nH]c(C2CN(C(=O)CCC3CC3)CCO2)n1` (centres undefined): the cytotoxicity at 70.5 h was -9.78%.

For the compound `CCn1ccnc1CN1CCN(CC(O)Cn2cccn2)CC1` (centres undefined), the cytotoxicity at 70.5 h is -10.4%.

`CC(O)CN1CCC(CNCc2ccccc2OC(F)(F)F)CC1` (centres undefined): the cytotoxicity at 70.5 h was 2.51%.

Turning to `CNc1cc(N2CCCC2CNCc2cnc(C)cn2)ncn1` (centres undefined), the cytotoxicity at 70.5 h was -8.09%.

Regarding `CCn1ccnc1CNCC1CCN(CC(O)c2ccccc2)CC1` (centres undefined), the cytotoxicity at 70.5 h was -11%.

For `c1cnnc(N2CCCC2CNCc2ccsc2)c1` (centres undefined), the cytotoxicity at 70.5 h was -10.1%.

As to `c1cnnc(N2CCCC2CNCc2nc(-c3ccsc3)no2)c1` (centres undefined), the cytotoxicity at 70.5 h is -20.3%.

As to `COCCN1CC(C(=O)NCc2ccnc(-n3cccn3)c2)CC1=O` (centres undefined), the cytotoxicity at 70.5 h is -6.88%.

`Cc1cc(C)n(CC2CCCN2CCS(=O)(=O)c2ccccc2)n1` (centres undefined): the cytotoxicity at 70.5 h is -24.2%.

As for `CCc1nc(C2CCCN2C(=O)c2ccoc2C)no1` (centres undefined), the cytotoxicity at 70.5 h is -9.91%.

Regarding `CC(C)=CCN1CCOC(Cn2nc(C)cc2C)C1` (centres undefined), the cytotoxicity at 70.5 h was 15.4%.

In the case of `CC(C)Cc1noc(CN2CCN(CCOc3ccc(Cl)cc3)CC2)n1`, the cytotoxicity at 70.5 h was -10.1%.

Take `CC(Cn1ccnc1)NC(=O)NCCc1ccccn1` (centres undefined): the cytotoxicity at 70.5 h is -0.19%.

With `Fc1ccc(OCc2noc(CN3CCc4cncnc4C3)n2)cc1`, the cytotoxicity at 70.5 h was -4.28%.

Consider `Cc1nc(C)n(CC2CCCN(CC(=O)Nc3c(C)n[nH]c3C)C2)n1` (centres undefined), for which the cytotoxicity at 70.5 h was -7.16%.

As to `Cc1noc2ncc(C(=O)NCC3CCOC3)cc12` (centres undefined), the cytotoxicity at 70.5 h was 22%.

On to `Cn1nccc1CNC(=O)Nc1cc(C(F)(F)F)c[nH]c1=O`, for which the cytotoxicity at 70.5 h is -7.39%.

As for `COc1cccc(OCCNCc2c(C)nn(C)c2N(C)C)c1`, the cytotoxicity at 70.5 h is -4.8%.

`Cc1ccccc1-c1cc(C(=O)N2CCn3c(C)nnc3C2)[nH]n1`: the cytotoxicity at 70.5 h amounted to 0.102%.

For `CCOCC(O)CN1CCN(C(=O)c2ccccc2Cl)CC1` (centres undefined), the cytotoxicity at 70.5 h is -2.72%.

In the case of `Cc1ccc(NC2CCN(C(=O)c3ccc(Cl)o3)CC2)nn1`, the cytotoxicity at 70.5 h stood at 34.4%.

Regarding `Cc1n[nH]c(C)c1NC(=O)CN1CCCC(CNC(=O)C(C)(C)C)C1` (centres undefined), the cytotoxicity at 70.5 h was 2.09%.

On to `CCc1noc(C(C)N2CCN(Cc3nc(C)c(C)o3)CC2)n1` (centres undefined), for which the cytotoxicity at 70.5 h came out at 23.9%.

On to `Cn1cc(CN2CCCN(C(=O)c3cc(Cl)cn3C)CC2)cn1`, for which the cytotoxicity at 70.5 h came out at 38.5%.

Turning to `CN(C(=O)NCCCN1CCCC1)C1CCN(c2ccccc2)C1=O` (centres undefined), the cytotoxicity at 70.5 h stood at 4.81%.

Consider `O=C(Nc1cn[nH]c1)c1ccc(O)nc1`, for which the cytotoxicity at 70.5 h was 1.6%.

Consider `Cc1noc(C)c1C(=O)NCc1ccnc(OCC(F)(F)F)c1`, for which the cytotoxicity at 70.5 h was -0.701%.

On to `Cc1cc(CN(C)C(=O)NC2CCCN(c3ncccn3)C2)no1` (centres undefined), for which the cytotoxicity at 70.5 h was -3.61%.

As to `CN(CC1COc2ccccc2O1)C(=O)NCCCn1cncn1` (centres undefined), the cytotoxicity at 70.5 h was -4.69%.

Turning to `O=C(Nc1nccs1)N(CCO)Cc1ccsc1`, the cytotoxicity at 70.5 h turned out to be 1.52%.

In the case of `Cc1cc(C)n(-c2ccc(CNCc3ccc(OC(C)C)cc3)cn2)n1`, the cytotoxicity at 70.5 h is -0.102%.

As for `Cc1ccc(C)c(OC2CCN(C(=O)c3ccc(C)[nH]c3=O)CC2)c1`, the cytotoxicity at 70.5 h was -11%.

With `O=C(Nc1ccccn1)N(CCO)Cc1ccsc1`, the cytotoxicity at 70.5 h came to 4.99%.

For the compound `CCN(CC)C(=O)Cn1ccc2cc(NC(=O)C3CC3)ccc21`, the cytotoxicity at 70.5 h was found to be 7.86%.

Consider `Cc1nc(C)c(CC(=O)Nc2ncc(C)s2)c(=O)[nH]1`, for which the cytotoxicity at 70.5 h was -1.19%.

Turning to `Cc1cccc(OCCC(=O)NCC(C)(C)C(N)=O)c1`, the cytotoxicity at 70.5 h was 5.99%.

For `O=C(CCc1cnn(-c2ccccc2)c1)N1CCCC(n2cccn2)C1` (centres undefined), the cytotoxicity at 70.5 h was found to be 6.67%.

For `CC(C)(CNC(=O)NCCOc1cccc(F)c1)C(N)=O`, the cytotoxicity at 70.5 h is -1.08%.

`Cc1cc(CC(=O)NCc2ccnc(OCC(F)(F)F)c2)no1`: the cytotoxicity at 70.5 h was found to be 34%.

Take `Cc1ncc(CNC(=O)N(C)C2CCN(c3ccccc3)C2=O)s1` (centres undefined): the cytotoxicity at 70.5 h is 3.88%.

On to `CN1CCCC1CNC(=O)CCCOc1ccc(F)cc1` (centres undefined), for which the cytotoxicity at 70.5 h turned out to be 0.0711%.

Consider `COc1cccc(COCC(=O)N2CCCC(N3CCCC3)CC2)c1` (centres undefined), for which the cytotoxicity at 70.5 h turned out to be 3.21%.

Regarding `CN(CC1COc2ccccc2O1)C(=O)NCCCn1ccnc1` (centres undefined), the cytotoxicity at 70.5 h was found to be 33.9%.

Consider `COc1cccc(COCC(=O)N2CCN(CC(C)(C)O)CC2)c1`, for which the cytotoxicity at 70.5 h stood at 4.32%.

For the compound `Cc1cccc(-c2nc(CN3CCCCC3Cn3cncn3)no2)c1` (centres undefined), the cytotoxicity at 70.5 h was -4.62%.

For the compound `Cc1cccc2c1OCCC2NCc1c(C)nn(C)c1N(C)C` (centres undefined), the cytotoxicity at 70.5 h was 35%.
